Literature values in PMC9851200, “Multiparameter phenotypic screening for endogenous TFEB and TFE3 translocation identifies novel chemical series modulating lysosome function” (Autophagy, 2022).

Columns and labels:
Design in all cases: method as in original PKIS2 published data
[1] = target: T1, kinases (KINOMEscan panel) (Homo sapiens, UniProt Q9UQB9); conditions: AURKC; Published KINOMEscan; ref original PKIS2 published data; cited from earlier work
T1 sequence (Q9UQB9 1-309): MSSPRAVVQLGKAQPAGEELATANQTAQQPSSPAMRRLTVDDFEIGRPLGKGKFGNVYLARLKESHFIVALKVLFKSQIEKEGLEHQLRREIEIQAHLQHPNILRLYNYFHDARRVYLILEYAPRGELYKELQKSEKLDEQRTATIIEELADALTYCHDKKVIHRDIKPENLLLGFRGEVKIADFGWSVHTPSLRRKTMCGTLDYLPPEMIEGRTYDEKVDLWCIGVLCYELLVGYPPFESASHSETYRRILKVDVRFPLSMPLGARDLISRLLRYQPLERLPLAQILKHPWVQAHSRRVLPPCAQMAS

[2] = target: kinases (KINOMEscan panel) (Homo sapiens, UniProt P22694); conditions: PRKACB; Published KINOMEscan; ref original PKIS2 published data; cited from earlier work
[3] = target: T2, kinases (KINOMEscan panel) (Homo sapiens, UniProt Q6ZN16); conditions: Published KINOMEscan; ref original PKIS2 published data; cited from earlier work
T2 sequence (Q6ZN16 1-1313): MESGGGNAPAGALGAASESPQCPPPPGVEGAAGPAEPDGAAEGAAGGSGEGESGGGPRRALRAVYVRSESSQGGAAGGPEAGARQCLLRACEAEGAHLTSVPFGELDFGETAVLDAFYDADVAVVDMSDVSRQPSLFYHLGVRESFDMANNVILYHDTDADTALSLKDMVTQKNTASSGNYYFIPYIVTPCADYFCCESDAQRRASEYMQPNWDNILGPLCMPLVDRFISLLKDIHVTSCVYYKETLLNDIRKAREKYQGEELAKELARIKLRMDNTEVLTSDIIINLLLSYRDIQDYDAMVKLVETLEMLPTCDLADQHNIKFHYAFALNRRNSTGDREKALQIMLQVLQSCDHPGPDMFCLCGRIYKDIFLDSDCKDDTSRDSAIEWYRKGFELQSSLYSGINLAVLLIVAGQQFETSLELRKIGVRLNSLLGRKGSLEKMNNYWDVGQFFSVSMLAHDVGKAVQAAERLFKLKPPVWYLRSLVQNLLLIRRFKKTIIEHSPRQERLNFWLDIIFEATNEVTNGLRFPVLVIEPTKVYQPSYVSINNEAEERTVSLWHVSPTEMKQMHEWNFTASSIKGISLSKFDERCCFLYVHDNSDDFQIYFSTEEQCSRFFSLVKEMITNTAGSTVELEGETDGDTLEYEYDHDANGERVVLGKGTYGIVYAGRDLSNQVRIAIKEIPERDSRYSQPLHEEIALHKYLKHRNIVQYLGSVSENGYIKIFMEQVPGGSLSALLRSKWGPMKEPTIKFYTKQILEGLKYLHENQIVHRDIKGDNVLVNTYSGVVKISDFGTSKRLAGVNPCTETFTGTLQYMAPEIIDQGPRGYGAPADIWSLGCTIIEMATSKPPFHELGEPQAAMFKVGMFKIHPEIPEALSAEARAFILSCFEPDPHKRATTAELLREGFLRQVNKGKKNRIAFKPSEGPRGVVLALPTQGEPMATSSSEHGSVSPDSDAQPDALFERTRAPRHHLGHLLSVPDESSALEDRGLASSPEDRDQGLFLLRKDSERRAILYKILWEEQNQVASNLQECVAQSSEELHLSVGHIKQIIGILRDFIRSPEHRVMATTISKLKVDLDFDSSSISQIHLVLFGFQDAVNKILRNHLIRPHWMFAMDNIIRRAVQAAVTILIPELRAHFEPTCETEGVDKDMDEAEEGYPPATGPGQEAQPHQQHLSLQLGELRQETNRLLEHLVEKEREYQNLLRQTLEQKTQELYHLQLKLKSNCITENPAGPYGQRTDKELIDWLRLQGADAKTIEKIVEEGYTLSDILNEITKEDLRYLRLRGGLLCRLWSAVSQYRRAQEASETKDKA

[4] = target: T3, kinases (KINOMEscan panel) (Homo sapiens, UniProt Q9UKI8); conditions: kinase TLK1; Published KINOMEscan; ref original PKIS2 published data; cited from earlier work
T3 sequence (Q9UKI8 1-766): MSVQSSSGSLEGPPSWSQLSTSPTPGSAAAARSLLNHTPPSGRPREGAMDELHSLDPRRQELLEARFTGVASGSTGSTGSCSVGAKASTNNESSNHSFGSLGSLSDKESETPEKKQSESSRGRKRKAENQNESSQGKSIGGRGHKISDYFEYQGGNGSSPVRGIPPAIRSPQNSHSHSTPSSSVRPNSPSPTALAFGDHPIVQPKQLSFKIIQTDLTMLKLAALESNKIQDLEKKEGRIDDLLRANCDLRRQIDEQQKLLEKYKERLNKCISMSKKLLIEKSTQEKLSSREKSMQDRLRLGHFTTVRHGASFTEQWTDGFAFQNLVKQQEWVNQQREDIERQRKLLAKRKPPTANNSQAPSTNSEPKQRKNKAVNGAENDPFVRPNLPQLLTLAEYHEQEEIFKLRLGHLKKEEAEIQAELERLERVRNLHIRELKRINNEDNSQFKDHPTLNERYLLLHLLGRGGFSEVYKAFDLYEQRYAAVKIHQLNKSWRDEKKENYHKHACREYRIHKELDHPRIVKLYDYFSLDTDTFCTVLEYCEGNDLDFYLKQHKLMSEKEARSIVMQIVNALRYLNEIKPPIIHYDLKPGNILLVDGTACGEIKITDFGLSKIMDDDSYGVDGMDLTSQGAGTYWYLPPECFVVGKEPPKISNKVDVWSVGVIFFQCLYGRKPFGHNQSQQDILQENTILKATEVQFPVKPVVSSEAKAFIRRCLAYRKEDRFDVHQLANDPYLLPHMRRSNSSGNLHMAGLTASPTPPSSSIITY

[5] = target: kinases (KINOMEscan panel) (Homo sapiens, UniProt P04049); conditions: RAF1; Published KINOMEscan; ref original PKIS2 published data; cited from earlier work
Chain of kinases (KINOMEscan panel) (Homo sapiens, UniProt P04049) (P04049 whole entry): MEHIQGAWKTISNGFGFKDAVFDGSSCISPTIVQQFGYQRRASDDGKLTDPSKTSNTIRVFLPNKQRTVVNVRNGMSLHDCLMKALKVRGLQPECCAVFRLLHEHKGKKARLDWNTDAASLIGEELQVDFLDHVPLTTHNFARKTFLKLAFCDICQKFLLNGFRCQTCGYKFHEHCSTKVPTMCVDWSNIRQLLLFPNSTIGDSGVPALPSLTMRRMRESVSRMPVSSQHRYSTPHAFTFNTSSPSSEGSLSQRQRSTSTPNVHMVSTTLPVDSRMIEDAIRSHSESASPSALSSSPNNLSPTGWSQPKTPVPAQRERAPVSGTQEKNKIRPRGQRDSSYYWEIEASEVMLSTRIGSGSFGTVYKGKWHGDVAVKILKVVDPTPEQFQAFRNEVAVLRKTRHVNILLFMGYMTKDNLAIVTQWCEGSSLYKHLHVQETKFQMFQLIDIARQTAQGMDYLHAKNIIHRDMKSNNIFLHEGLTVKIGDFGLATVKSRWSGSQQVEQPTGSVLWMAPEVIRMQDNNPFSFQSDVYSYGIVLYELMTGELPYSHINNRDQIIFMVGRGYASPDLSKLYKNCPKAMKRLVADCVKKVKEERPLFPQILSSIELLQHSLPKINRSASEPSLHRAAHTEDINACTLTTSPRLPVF

Cc1cccc(-c2nc(Nc3ccncc3)c3ccccc3n2)n1 [NK215]
KINOMEscan AURKC [1]: 0
KINOMEscan PRKACB [2]: 30
KINOMEscan MAP3K15 [3]: 0
KINOMEscan TLK1 [4]: 0
KINOMEscan RAF1 [5]: 39
